Laboratory results as given in patent publication US9895338B1, “Cobalt-polypyridyl complex for treatment of cancer, a pharmaceutical composition and a kit comprising it” (Macau University of Science and Technology, priority 2016, dated 2018).
Read-outs that look alike come from different tables or passages of the source.

Columns and labels:
[1] = system: Taxol-resistant HCT8 cancer cells; assay: MTT cytotoxicity, taxol-resistant HCT8; format: cell-based
Protocol: (§1) All prepared cobalt-polypyridyl complexes were dissolved in DMSO at a final concentration of 50 mmol/L and stored at −20° C. before use. Cytotoxicity was assessed by using the 3-(4,5-dimethylthiazol-2-yl)-2,5-diphenyltetrazolium bromide (MTT) (5.0 mg/ml) assay as previously described (Wong, V. K. et al., Cell Death Dis, 2013, 4, e720). Briefly, 4×10^3 cells per well were seeded in 96-well plates before drug treatments. After overnight culture, the cells were then exposed to different concentrations of selected compounds (0.039-100 μmol/L) for 72 h. Cells without drug treatment were used as control. Subsequently, MTT (10 μL) solution was added to each well and incubated at 37° C. for 4 h followed by the addition of 100 μL solubilization buffer (10% SDS in 0.01 mol/L HCl) and overnight incubation. A570 nm was then determined in each well on the next day. The percentage of cell viability was calculated using the following formula: Cell viability (%)=Atreated/Acontrol×100. Data were obtained from three independent experiments.
(§2) All cells were obtained from the American Type Culture Collection (Rockville, Md., USA) unless otherwise specified. Immortalized wild-type and Atg7-deficient mouse embryonic fibroblasts (MEFs) were provided by Professor Masaaki Komatsu (Juntendo University, School of Medicine, Japan). Taxol-resistant types of A549, MCF-7, HCT-8 cancer cells, cisplatin-resistant SGC7901 cancer cells were purchased from KeyGEN BioTECH, China.

Hep 3B (liver cancer) = assay: MTT cytotoxicity assay, Hep3B; format: cell-based; settings: 72 h
Protocol: as §1, with “experiments. Cells include HeLa cells (cervical cancer), MCF-7 (breast cancer), H1299, H1975, A549 and LLC-1 (lung cancer), HepG2 and Hep3B (liver cancer) and LO2 (normal human hepatocytes).” for “experiments.”

[2] = system: Taxol-resistant A549 cancer cells; assay: MTT cytotoxicity, taxol-resistant A549; format: cell-based
Protocol: as §1, §2

MCF-7 (breast cancer) = assay: MTT cytotoxicity assay, MCF-7; format: cell-based; settings: MCF-7, MTT, 72 h
Protocol: as §1, with “experiments. Cells include HeLa cells (cervical cancer), MCF-7 (breast cancer), H1299, H1975, A549 and LLC-1 (lung cancer), HepG2 and Hep3B (liver cancer) and LO2 (normal human hepatocytes).” for “experiments.”

[3] = system: HCT116 p53^+/+ colon cancer cells; assay: MTT cytotoxicity, HCT116 p53+/+; format: cell-based, human; settings: 72 h
Protocol: as §1
(§3) Cisplatin-sensitive or -resistant A2780, OV2008 and C13 cancer cells were provided by Prof. Benjamin Tsang (Department of Obstetrics and Gynecology and Department of Cellular and Molecular Medicine, University of Ottawa, Canada). HCT116 p53^+/+ and p53^−/− isogenic human colon cancer cells were provided by Professor Bert Vogelstein (Ludwig Center at Johns Hopkins, Howard Hughes Medical Institute, USA). All media were supplemented with 10% fetal bovine serum and the antibiotics penicillin (50 U/ml) and streptomycin (50 μg/ml; Invitrogen, Paisley, Scotland, UK). All cell cultures were incubated at 37° C. in a 5% humidified CO2 incubator.

A549 (lung cancer) = assay: MTT cytotoxicity assay, A549; format: cell-based; settings: 72 h
Protocol: as §1, with “experiments. Cells include HeLa cells (cervical cancer), MCF-7 (breast cancer), H1299, H1975, A549 and LLC-1 (lung cancer), HepG2 and Hep3B (liver cancer) and LO2 (normal human hepatocytes).” for “experiments.”

[4] = system: endogenous LC3-II puncta formation in HeLa cancer cells; settings: HeLa, 5, 10, 20 μM
Protocol: The detection of endogenous LC3 was conducted using immunofluorescence staining method as described below. HeLa cancer cells treated with the cobalt-polypyridyl complex of Formula (IV) (with PF6^− as counterion) on cover slips were fixed with 4% paraformaldehyde (Sigma) for 20 min at room temperature and then rinsed with PBS. Coverslips were immersed in methanol at room temperature for 2 min. After washing with PBS, the cells were then incubated with anti-LC3 (1:200) in TBST (100 mM TrisHCl, pH 7.5, 150 mM NaCl, 0.05% Tween 20 and 5% BSA) overnight at 4° C. […] The coverslips were then mounted with FluorSave™ mounting media (Calbiochem, San Diego, Calif., USA) for fluorescence imaging and localization of LC3 autophagosomes were captured under the API Delta Vision Live-cell Imaging System (Applied Precision Inc., GE Healthcare Company, Washington, USA). To quantify autophagy, guidelines of autophagy quantitation were followed (Klionsky, D. J. et al., Autophagy, 2016, 12, 1-222). The percentage of cells with autophagic induction was calculated by the number of the cells with increased formation of punctate LC3 fluorescence dots (≧10 dots/cell) over the total number of immunofluorescence-positive cells in the same field. A minimum of 1000 cells from randomly selected fields were scored.

[5] = system: Taxol-sensitive A549 cancer cells; assay: MTT cytotoxicity, taxol-sensitive A549; format: cell-based; settings: 72 h
Protocol: as §1

[6] = system: Taxol-resistant MCF-7 cancer cells; assay: MTT cytotoxicity, taxol-resistant MCF-7; format: cell-based
Protocol: as §1, §2

[7] = system: OV2008 cervical cancer cells; assay: MTT cytotoxicity, OV2008 (cisplatin-sensitive); format: cell-based; settings: 72 h
Protocol: as §1, §3

HepG2 (liver cancer) = assay: MTT cytotoxicity assay, HepG2; format: cell-based; settings: 72 h
Protocol: as §1, with “experiments. Cells include HeLa cells (cervical cancer), MCF-7 (breast cancer), H1299, H1975, A549 and LLC-1 (lung cancer), HepG2 and Hep3B (liver cancer) and LO2 (normal human hepatocytes).” for “experiments.”

H1299 (lung cancer) = assay: MTT cytotoxicity assay, H1299; format: cell-based, human; settings: 72 h
Protocol: as §1, with “experiments. Cells include HeLa cells (cervical cancer), MCF-7 (breast cancer), H1299, H1975, A549 and LLC-1 (lung cancer), HepG2 and Hep3B (liver cancer) and LO2 (normal human hepatocytes).” for “experiments.”

[8] = system: LO2 (normal human hepatocytes); assay: MTT cytotoxicity assay, LO2; format: cell-based; settings: 72 h
Protocol: as §1, with “experiments. Cells include HeLa cells (cervical cancer), MCF-7 (breast cancer), H1299, H1975, A549 and LLC-1 (lung cancer), HepG2 and Hep3B (liver cancer) and LO2 (normal human hepatocytes).” for “experiments.”

[9] = system: cisplatin-resistant SGC-7901 gastric cancer cells; assay: MTT cytotoxicity, cisplatin-resistant SGC-7901; format: cell-based
Protocol: as §1, §2

[10] = system: OV2008/C13 cervical cancer cells; assay: MTT cytotoxicity, OV2008/C13 (cisplatin-resistant); format: cell-based
Protocol: as §1, §3

H1975 (lung cancer) = assay: MTT cytotoxicity assay, H1975; format: cell-based; settings: 72 h
Protocol: as §1, with “experiments. Cells include HeLa cells (cervical cancer), MCF-7 (breast cancer), H1299, H1975, A549 and LLC-1 (lung cancer), HepG2 and Hep3B (liver cancer) and LO2 (normal human hepatocytes).” for “experiments.”

HeLa cancer cells = system: HeLa cancer cells
Protocol: For cell cycle analysis, the cells were harvested and washed with ice-cold phosphate-buffered saline (PBS), and then suspended and permeabilized with 70% ethanol for overnight at 4° C. For detecting DNA content and cell cycle, cells were incubated with the freshly prepared propidium iodide (PI) staining buffer for 30 min at room temperature in dark. Fractions of the cells in G1, S, and G2/M phase were analyzed using Modfit software 3.1.
To investigate whether the cobalt-polypyridyl complexes could suppress cancer cell growth by arresting cell cycle progression, HeLa cancer cells were treated with different concentrations of the cobalt-polypyridyl complex of Formula (IV) (with PF6^− as counterion).

Cc1ccnc(-c2cc(C)ccn2)c1.Cc1ccnc(-c2cc(C)ccn2)c1.Cc1ccnc(-c2cc(C)ccn2)c1.F[P-](F)(F)(F)(F)F.F[P-](F)(F)(F)(F)F.F[P-](F)(F)(F)(F)F.[Co+3] [complex (IV), [Co^III(4,4′-Me2-Bpy)3.](PF6)3] was tested, and the IC50 ([1]; HCT8, MTT, 72 h) was 1.22 µM, the “Resistant Factor” value ([1]; HCT8, IC50 taxol-resistant over IC50 taxol-sensitive) was 0.36 and the IC50 (Hep 3B (liver cancer)) was 3.7 µM. For the same molecule, the IC50 ([2]; A549, MTT, 72 h) was 2.85 µM, the “Resistant Factor” value ([2]; A549, IC50 taxol-resistant over IC50 taxol-sensitive) was 0.25 and the IC50 (MCF-7 (breast cancer)) was 6.03 µM. For the same molecule, the IC50 [3] was 15.4 µM, the IC50 (A549 (lung cancer)) was 7.86 µM and the “endogenous LC3-II puncta formation (autophagy induction)” value [4] was “induce autophagy in dose-dependent manner”. The IC50 [5] was 11.5 µM, the IC50 ([6]; MCF-7, MTT, 72 h) was 2.71 µM and the “Resistant Factor” value ([6]; MCF-7, IC50 taxol-resistant over IC50 taxol-sensitive) was 0.68. The IC50 [7] was 7.62 µM, the IC50 (HepG2 (liver cancer)) was 5.44 µM and the IC50 (H1299 (lung cancer)) was 2.84 µM. The IC50 [8] was 13.2 µM, the IC50 ([9]; SGC-7901, MTT, 72 h) was 12.6 µM and the “Resistant Factor” value ([9]; SGC-7901, cisplatin-resistant over cisplatin-sensitive) was 1.14. The IC50 ([10]; OV2008/C13, MTT, 72 h) was 7.59 µM, the “Resistant Factor” value ([10]; OV2008/C13 over OV2008) was 1.0 and the IC50 (H1975 (lung cancer)) was 8.84 µM. The “effect on cell cycle progression” value (HeLa cancer cells; high concentration) was “arrest HeLa cancer cell in S-phase” and the “effect on cell cycle progression” value (HeLa cancer cells; low concentration) was “negligible effect on cell cycle progression”.
